# The source made the active and inactive calls. The rule behind the calls is not given here.
# Test system: HCC827
# Assay: Induction of apoptosis in human HCC827 cells harboring EGFR del E746-A750 mutant assessed as early apoptotic cells at 5 uM measured after 18 hrs by Annexin V-FITC/PI staining based flow cytometry analysis (Rvb= 9.6%)
# Format: functional
# Conditions: not given
row,SMILES,Activity [%]
1,C=CC(=O)Nc1cccc(Oc2nc(Nc3ccc(N4CCN(C)CC4)c(N)c3)nc3[nH]ccc23)c1,12.1

# Test system: HCC827
# Assay: Induction of apoptosis in human HCC827 cells harboring EGFR del E746-A750 mutant assessed as total apoptotic cells at 0.5 uM measured after 18 hrs by Annexin V-FITC/PI staining based flow cytometry analysis (Rvb= 10.8%)
# Format: functional
# Conditions: not given
row,SMILES,Activity [%]
1,C=CC(=O)Nc1cccc(Oc2nc(Nc3ccc(N4CCN(C)CC4)c(N)c3)nc3[nH]ccc23)c1,23.6

# Test system: HCC827
# Assay: Induction of cell cycle arrest in human HCC827 cells harboring EGFR del E746-A750 mutant assessed as accumulation of cells in S phase at 0.5 uM measured after 18 hrs by PI/RNaseA staining based flow cytometry analysis (Rvb= 33.62%)
# Format: functional
# Conditions: not given
row,SMILES,Activity [%]
1,C=CC(=O)Nc1cccc(Oc2nc(Nc3ccc(N4CCN(C)CC4)c(N)c3)nc3[nH]ccc23)c1,15.39

# Molecular target: Mitogen-activated protein kinase; ERK1/ERK2 (Homo sapiens) (UniProt P27361+P28482)
# Sequence (P27361 whole entry, looked up): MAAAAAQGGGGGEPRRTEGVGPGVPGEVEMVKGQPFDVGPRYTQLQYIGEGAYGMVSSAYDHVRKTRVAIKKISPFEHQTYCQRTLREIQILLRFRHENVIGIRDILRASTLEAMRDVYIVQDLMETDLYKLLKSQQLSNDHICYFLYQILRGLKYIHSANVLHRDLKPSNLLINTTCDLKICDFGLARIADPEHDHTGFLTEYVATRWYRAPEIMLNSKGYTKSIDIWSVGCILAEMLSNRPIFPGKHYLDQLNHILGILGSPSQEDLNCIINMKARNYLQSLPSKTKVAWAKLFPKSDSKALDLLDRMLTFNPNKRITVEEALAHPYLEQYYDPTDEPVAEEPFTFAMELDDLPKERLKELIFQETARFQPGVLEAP
# Sequence (P28482 whole entry, looked up): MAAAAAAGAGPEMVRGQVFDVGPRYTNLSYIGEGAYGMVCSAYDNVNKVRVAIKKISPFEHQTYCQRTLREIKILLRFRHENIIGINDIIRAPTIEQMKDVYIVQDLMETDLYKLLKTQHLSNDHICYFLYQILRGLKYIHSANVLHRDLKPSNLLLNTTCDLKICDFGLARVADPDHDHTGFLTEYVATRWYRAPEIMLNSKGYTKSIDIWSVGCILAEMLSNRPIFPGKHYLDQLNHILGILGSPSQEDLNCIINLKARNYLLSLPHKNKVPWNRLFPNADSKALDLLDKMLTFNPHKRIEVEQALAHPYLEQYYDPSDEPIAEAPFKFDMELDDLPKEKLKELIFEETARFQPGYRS
# Assay: Inhibition of ERK1/2 phosphorylation at Thr202/Tyr204 residue in human HBE cells at 5 uM incubated for 2 hrs by immunoblotting analysis
# Format: cell-based
# Conditions: not given
row,SMILES,inhibition
1,C=CC(=O)Nc1cccc(Oc2nc(Nc3ccc(N4CCN(C)CC4)c(N)c3)nc3[nH]ccc23)c1,Active

# Test system: A549
# Assay: Induction of cell cycle arrest in human A549 cells harboring wild type EGFR assessed as accumulation of cells in G0/G1 phase at 0.5 uM measured after 18 hrs by PI/RNaseA staining based flow cytometry analysis (Rvb= 58.27%)
# Format: functional
# Conditions: not given
row,SMILES,Activity [%]
1,C=CC(=O)Nc1cccc(Oc2nc(Nc3ccc(N4CCN(C)CC4)c(N)c3)nc3[nH]ccc23)c1,60.45

# Test system: NCI-H1975
# Assay: Induction of apoptosis in human NCI-H1975 cells harboring EGFR L858R/T790M mutant assessed as dead cells at 5 uM measured after 18 hrs by Annexin V-FITC/PI staining based flow cytometry analysis (Rvb= […])
# Format: functional
# Conditions: not given
row,SMILES,Activity [%]
1,C=CC(=O)Nc1cccc(Oc2nc(Nc3ccc(N4CCN(C)CC4)c(N)c3)nc3[nH]ccc23)c1,2

# Test system: NCI-H1975
# Assay: Induction of cell cycle arrest in human NCI-H1975 cells harboring EGFR L858R/T790M mutant assessed as accumulation of cells in G0/G1 phase at 5 uM measured after 18 hrs by PI/RNaseA staining based flow cytometry analysis (Rvb= 42.69%)
# Format: functional
# Conditions: not given
row,SMILES,Activity [%]
1,C=CC(=O)Nc1cccc(Oc2nc(Nc3ccc(N4CCN(C)CC4)c(N)c3)nc3[nH]ccc23)c1,80.62

# Test system: HCC827
# Assay: Induction of cell cycle arrest in human HCC827 cells harboring EGFR del E746-A750 mutant assessed as accumulation of cells in G2/M phase at 5 uM measured after 18 hrs by PI/RNaseA staining based flow cytometry analysis (Rvb= 16.78%)
# Format: functional
# Conditions: not given
row,SMILES,Activity [%]
1,C=CC(=O)Nc1cccc(Oc2nc(Nc3ccc(N4CCN(C)CC4)c(N)c3)nc3[nH]ccc23)c1,7.95

# Test system: NCI-H1975
# Assay: Induction of apoptosis in human NCI-H1975 cells harboring EGFR L858R/T790M mutant assessed as total apoptotic cells at 5 uM measured after 18 hrs by Annexin V-FITC/PI staining based flow cytometry analysis (Rvb= 9.2%)
# Format: functional
# Conditions: not given
row,SMILES,Activity [%]
1,C=CC(=O)Nc1cccc(Oc2nc(Nc3ccc(N4CCN(C)CC4)c(N)c3)nc3[nH]ccc23)c1,16.1

# Test system: HCC827
# Assay: Induction of apoptosis in human HCC827 cells harboring EGFR del E746-A750 mutant assessed as late apoptotic cells at 5 uM measured after 18 hrs by Annexin V-FITC/PI staining based flow cytometry analysis (Rvb= 1.2%)
# Format: functional
# Conditions: not given
row,SMILES,Activity [%]
1,C=CC(=O)Nc1cccc(Oc2nc(Nc3ccc(N4CCN(C)CC4)c(N)c3)nc3[nH]ccc23)c1,16.6

# Test system: A549
# Assay: Induction of cell cycle arrest in human A549 cells harboring wild type EGFR assessed as accumulation of cells in S phase at 5 uM measured after 18 hrs by PI/RNaseA staining based flow cytometry analysis (Rvb= 33.26%)
# Format: functional
# Conditions: not given
row,SMILES,Activity [%]
1,C=CC(=O)Nc1cccc(Oc2nc(Nc3ccc(N4CCN(C)CC4)c(N)c3)nc3[nH]ccc23)c1,6.86

# Test system: NCI-H1975
# Assay: Induction of apoptosis in human NCI-H1975 cells harboring EGFR L858R/T790M mutant assessed as late apoptotic cells at 0.5 uM measured after 18 hrs by Annexin V-FITC/PI staining based flow cytometry analysis (Rvb= 0.1%)
# Format: functional
# Conditions: not given
row,SMILES,Activity [%]
1,C=CC(=O)Nc1cccc(Oc2nc(Nc3ccc(N4CCN(C)CC4)c(N)c3)nc3[nH]ccc23)c1,0.3

# Test system: A549
# Assay: Induction of cell cycle arrest in human A549 cells harboring wild type EGFR assessed as accumulation of cells in G0/G1 phase at 1 uM measured after 18 hrs by PI/RNaseA staining based flow cytometry analysis (Rvb= 58.27%)
# Format: functional
# Conditions: not given
row,SMILES,Activity [%]
1,C=CC(=O)Nc1cccc(Oc2nc(Nc3ccc(N4CCN(C)CC4)c(N)c3)nc3[nH]ccc23)c1,64.23

# Test system: HCC827
# Assay: Induction of cell cycle arrest in human HCC827 cells harboring EGFR del E746-A750 mutant assessed as accumulation of cells in G0/G1 phase at 1 uM measured after 18 hrs by PI/RNaseA staining based flow cytometry analysis (Rvb= 49.60%)
# Format: functional
# Conditions: not given
row,SMILES,Activity [%]
1,C=CC(=O)Nc1cccc(Oc2nc(Nc3ccc(N4CCN(C)CC4)c(N)c3)nc3[nH]ccc23)c1,72.43

# Test system: HCC827
# Assay: Induction of apoptosis in human HCC827 cells harboring EGFR del E746-A750 mutant assessed as early apoptotic cells at 0.5 uM measured after 18 hrs by Annexin V-FITC/PI staining based flow cytometry analysis (Rvb= 9.6%)
# Format: functional
# Conditions: not given
row,SMILES,Activity [%]
1,C=CC(=O)Nc1cccc(Oc2nc(Nc3ccc(N4CCN(C)CC4)c(N)c3)nc3[nH]ccc23)c1,11.1

# Test system: A549
# Assay: Induction of cell cycle arrest in human A549 cells harboring wild type EGFR assessed as accumulation of cells in G2/M phase at 1 uM measured after 18 hrs by PI/RNaseA staining based flow cytometry analysis (Rvb= 8.47%)
# Format: functional
# Conditions: not given
row,SMILES,Activity [%]
1,C=CC(=O)Nc1cccc(Oc2nc(Nc3ccc(N4CCN(C)CC4)c(N)c3)nc3[nH]ccc23)c1,9.7

# Test system: NCI-H1975
# Assay: Induction of cell cycle arrest in human NCI-H1975 cells harboring EGFR L858R/T790M mutant assessed as accumulation of cells in G0/G1 phase at 0.5 uM measured after 18 hrs by PI/RNaseA staining based flow cytometry analysis (Rvb= 42.69%)
# Format: functional
# Conditions: not given
row,SMILES,Activity [%]
1,C=CC(=O)Nc1cccc(Oc2nc(Nc3ccc(N4CCN(C)CC4)c(N)c3)nc3[nH]ccc23)c1,64.04

# Test system: NCI-H1975
# Assay: Induction of cell cycle arrest in human NCI-H1975 cells harboring EGFR L858R/T790M mutant assessed as accumulation of cells in S phase at 5 uM measured after 18 hrs by PI/RNaseA staining based flow cytometry analysis (Rvb= 39.78%)
# Format: functional
# Conditions: not given
row,SMILES,Activity [%]
1,C=CC(=O)Nc1cccc(Oc2nc(Nc3ccc(N4CCN(C)CC4)c(N)c3)nc3[nH]ccc23)c1,10.15

# Test system: HCC827
# Assay: Cytotoxicity against human HCC827 cells harboring EGFR del E746-A750 mutant assessed as reduction in cell viability measured after 48 hrs by CCK8 assay
# Format: functional, cell-based
# Conditions: HCC827, 48 h
row,SMILES,IC50 [µM]
1,C=CC(=O)Nc1cccc(Oc2nc(Nc3ccc(N4CCN(C)CC4)c(N)c3)nc3[nH]ccc23)c1,0.046

# Test system: NCI-H1975
# Assay: Inhibition of AKT phosphorylation in human NCI-H1975 cells at 0.1 to 5 uM incubated for 2 hrs by immunoblotting analysis
# Format: cell-based
# Conditions: dose 0.1-5 µM
row,SMILES,inhibition
1,C=CC(=O)Nc1cccc(Oc2nc(Nc3ccc(N4CCN(C)CC4)c(N)c3)nc3[nH]ccc23)c1,Active

# Test system: NCI-H1975
# Assay: Induction of cell cycle arrest in human NCI-H1975 cells harboring EGFR L858R/T790M mutant assessed as accumulation of cells in G2/M phase at 5 uM measured after 18 hrs by PI/RNaseA staining based flow cytometry analysis (Rvb= 17.33%)
# Format: functional
# Conditions: not given
row,SMILES,Activity [%]
1,C=CC(=O)Nc1cccc(Oc2nc(Nc3ccc(N4CCN(C)CC4)c(N)c3)nc3[nH]ccc23)c1,9.23

# Molecular target: Signal transducer and activator of transcription 3 (Homo sapiens) (UniProt P40763)
# Sequence (P40763 whole entry): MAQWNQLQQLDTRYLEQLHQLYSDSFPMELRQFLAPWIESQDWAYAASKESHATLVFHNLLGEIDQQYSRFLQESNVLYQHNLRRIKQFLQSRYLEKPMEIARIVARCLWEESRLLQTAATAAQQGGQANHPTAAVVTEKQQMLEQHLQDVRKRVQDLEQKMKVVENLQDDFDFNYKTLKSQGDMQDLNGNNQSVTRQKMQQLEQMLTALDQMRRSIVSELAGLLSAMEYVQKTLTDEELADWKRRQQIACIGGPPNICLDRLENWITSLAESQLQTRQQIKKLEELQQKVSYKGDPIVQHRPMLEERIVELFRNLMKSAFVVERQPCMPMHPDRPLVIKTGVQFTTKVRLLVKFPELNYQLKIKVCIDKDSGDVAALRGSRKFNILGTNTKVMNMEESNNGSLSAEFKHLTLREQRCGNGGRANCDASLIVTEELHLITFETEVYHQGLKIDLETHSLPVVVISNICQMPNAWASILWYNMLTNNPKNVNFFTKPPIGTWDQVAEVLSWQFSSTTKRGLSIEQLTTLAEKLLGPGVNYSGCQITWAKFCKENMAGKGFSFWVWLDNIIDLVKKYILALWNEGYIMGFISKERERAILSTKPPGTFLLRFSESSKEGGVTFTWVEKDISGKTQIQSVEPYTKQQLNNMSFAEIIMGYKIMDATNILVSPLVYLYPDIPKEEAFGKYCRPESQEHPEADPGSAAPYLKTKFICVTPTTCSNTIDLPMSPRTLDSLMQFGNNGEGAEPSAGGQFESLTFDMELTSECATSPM
# Assay: Inhibition of STAT3 phosphorylation at Ser727 residue in human HBE cells at 5 uM incubated for 2 hrs by immunoblotting analysis
# Format: cell-based
# Conditions: not given
row,SMILES,inhibition
1,C=CC(=O)Nc1cccc(Oc2nc(Nc3ccc(N4CCN(C)CC4)c(N)c3)nc3[nH]ccc23)c1,inactive

# Test system: NCI-H1975
# Assay: Induction of apoptosis in human NCI-H1975 cells harboring EGFR L858R/T790M mutant assessed as late apoptotic cells at 5 uM measured after 18 hrs by Annexin V-FITC/PI staining based flow cytometry analysis (Rvb= 0.1%)
# Format: functional
# Conditions: not given
row,SMILES,Activity [%]
1,C=CC(=O)Nc1cccc(Oc2nc(Nc3ccc(N4CCN(C)CC4)c(N)c3)nc3[nH]ccc23)c1,0.2

# Test system: NCI-H1975
# Assay: Induction of apoptosis in human NCI-H1975 cells harboring EGFR L858R/T790M mutant assessed as live cells at 0.5 uM measured after 18 hrs by Annexin V-FITC/PI staining based flow cytometry analysis (Rvb= 89.4%)
# Format: functional
# Conditions: not given
row,SMILES,Activity [%]
1,C=CC(=O)Nc1cccc(Oc2nc(Nc3ccc(N4CCN(C)CC4)c(N)c3)nc3[nH]ccc23)c1,81.1

# Test system: HCC827
# Assay: Induction of apoptosis in human HCC827 cells harboring EGFR del E746-A750 mutant assessed as live cells at 5 uM measured after 18 hrs by Annexin V-FITC/PI staining based flow cytometry analysis (Rvb= 87.5%)
# Format: functional
# Conditions: not given
row,SMILES,Activity [%]
1,C=CC(=O)Nc1cccc(Oc2nc(Nc3ccc(N4CCN(C)CC4)c(N)c3)nc3[nH]ccc23)c1,74.3

# Test system: NCI-H1975
# Assay: Induction of apoptosis in human NCI-H1975 cells harboring EGFR L858R/T790M mutant assessed as total apoptotic cells at 0.5 uM measured after 18 hrs by Annexin V-FITC/PI staining based flow cytometry analysis (Rvb= 9.2%)
# Format: functional
# Conditions: not given
row,SMILES,Activity [%]
1,C=CC(=O)Nc1cccc(Oc2nc(Nc3ccc(N4CCN(C)CC4)c(N)c3)nc3[nH]ccc23)c1,16.4

# Test system: HCC827
# Assay: Induction of cell cycle arrest in human HCC827 cells harboring EGFR del E746-A750 mutant assessed as accumulation of cells in G0/G1 phase at 0.5 uM measured after 18 hrs by PI/RNaseA staining based flow cytometry analysis (Rvb= 49.60%)
# Format: functional
# Conditions: not given
row,SMILES,Activity [%]
1,C=CC(=O)Nc1cccc(Oc2nc(Nc3ccc(N4CCN(C)CC4)c(N)c3)nc3[nH]ccc23)c1,74.57

# Reference: ChEMBL document CHEMBL4828722, “The synthesis and bioactivity of pyrrolo[2,3-d]pyrimidine derivatives as tyrosine kinase inhibitors for NSCLC cells with EGFR mutations” (Eur J Med Chem, 2021)
